Experimental data as given in patent US20220281848A1, “PYRAZOLE-SUBSTITUTED PYRROLIDINONES AS HERBICIDES” (FMC Corporation, priority 2019, published 2022).

System: plants
Test: Test D pre-emergence, other plants of Tables D1 and D3
Format: in vivo
Settings: pre-emergence, 100=total damage, 0=no damage
Protocol: A formulation containing 50 g/L of the test chemical was prepared by dissolving the active ingredient in a mixture of organic solvents and emulsifier, details of which are provided in the table. This formulation was then mixed with a small, variable amount of acetone to aid dissolution, before addition of a 0.2% v/v aqueous solution of an adjuvant, as the aqueous diluent, to form an aqueous spray solution which contains a predetermined concentration of the active ingredient.
This aqueous spray solution was then sprayed onto plants including maize and wheat that had been seed treated with a herbicide safener, after one day's cultivation (for pre-emergence) or after about 12 days' cultivation (for post-emergence). The plants were grown from seeds sown in standard soil, placed in a glasshouse under controlled conditions (at 24/18° C. or 20/16° C., day/night; 16 h light; 65% humidity). After spray application the plants were then grown in a glasshouse under the same conditions and watered twice daily. After 15 d for post-emergence and 20 DAA for pre-emergence the test was evaluated (100=total damage to plant; 0=no damage to plant).

CN1CC(c2cc(C(F)(F)F)n(C)n2)C(C(=O)Nc2ccc(F)cc2F)C1=O (racemic) [Compound 6]
10: damage to plant, POAAN (rate 130, 20 DAA) | damage to plant, CHEAL (rate 250, 20 DAA) | damage to plant, GALAP (rate 250, 20 DAA) | damage to plant, HORVW (rate 250, 20 DAA) | damage to plant, STEME (rate 250, 20 DAA) | damage to plant, VERPE (rate 250, 20 DAA) | damage to plant, KCHSC (rate 500, 20 DAA) | damage to plant, SINAR (rate 500, 20 DAA) | damage to plant, STEME (rate 500, 20 DAA)
0: damage to plant, ALOMY (rate 15, 20 DAA) | damage to plant, AVEFA (rate 15, 20 DAA) | damage to plant, BEAVA (rate 15, 20 DAA) | damage to plant, BROTE (rate 15, 20 DAA) | damage to plant, BRSNN (rate 15, 20 DAA) | damage to plant, CHEAL (rate 15, 20 DAA) | damage to plant, GALAP (rate 15, 20 DAA) | damage to plant, HORVW (rate 15, 20 DAA) | damage to plant, KCHSC (rate 15, 20 DAA) | damage to plant, LOLPE (rate 15, 20 DAA) | damage to plant, POAAN (rate 15, 20 DAA) | damage to plant, POLCO (rate 15, 20 DAA) | damage to plant, SINAR (rate 15, 20 DAA) | damage to plant, STEME (rate 15, 20 DAA) | damage to plant, VERPE (rate 15, 20 DAA) | damage to plant, ALOMY (rate 30, 20 DAA) | damage to plant, AVEFA (rate 30, 20 DAA) | damage to plant, BEAVA (rate 30, 20 DAA) | damage to plant, BROTE (rate 30, 20 DAA) | damage to plant, BRSNN (rate 30, 20 DAA) | damage to plant, CHEAL (rate 30, 20 DAA) | damage to plant, GALAP (rate 30, 20 DAA) | damage to plant, HORVW (rate 30, 20 DAA) | damage to plant, KCHSC (rate 30, 20 DAA) | damage to plant, LOLPE (rate 30, 20 DAA) | damage to plant, POAAN (rate 30, 20 DAA) | damage to plant, POLCO (rate 30, 20 DAA) | damage to plant, SINAR (rate 30, 20 DAA) | damage to plant, STEME (rate 30, 20 DAA) | damage to plant, VERPE (rate 30, 20 DAA) | damage to plant, ALOMY (rate 60, 20 DAA) | damage to plant, AVEFA (rate 60, 20 DAA) | damage to plant, BEAVA (rate 60, 20 DAA) | damage to plant, BROTE (rate 60, 20 DAA) | damage to plant, BRSNN (rate 60, 20 DAA) | damage to plant, CHEAL (rate 60, 20 DAA) | damage to plant, GALAP (rate 60, 20 DAA) | damage to plant, HORVW (rate 60, 20 DAA) | damage to plant, KCHSC (rate 60, 20 DAA) | damage to plant, LOLPE (rate 60, 20 DAA) | damage to plant, POAAN (rate 60, 20 DAA) | damage to plant, POLCO (rate 60, 20 DAA) | damage to plant, SINAR (rate 60, 20 DAA) | damage to plant, STEME (rate 60, 20 DAA) | damage to plant, VERPE (rate 60, 20 DAA) | damage to plant, ALOMY (rate 130, 20 DAA) | damage to plant, AVEFA (rate 130, 20 DAA) | damage to plant, BEAVA (rate 130, 20 DAA) | damage to plant, BROTE (rate 130, 20 DAA) | damage to plant, BRSNN (rate 130, 20 DAA) | damage to plant, CHEAL (rate 130, 20 DAA) | damage to plant, GALAP (rate 130, 20 DAA) | damage to plant, HORVW (rate 130, 20 DAA) | damage to plant, KCHSC (rate 130, 20 DAA) | damage to plant, LOLPE (rate 130, 20 DAA) | damage to plant, POLCO (rate 130, 20 DAA) | damage to plant, SINAR (rate 130, 20 DAA) | damage to plant, STEME (rate 130, 20 DAA) | damage to plant, VERPE (rate 130, 20 DAA) | damage to plant, ALOMY (rate 250, 20 DAA) | damage to plant, AVEFA (rate 250, 20 DAA) | damage to plant, BEAVA (rate 250, 20 DAA) | damage to plant, BROTE (rate 250, 20 DAA) | damage to plant, BRSNN (rate 250, 20 DAA) | damage to plant, KCHSC (rate 250, 20 DAA) | damage to plant, POLCO (rate 250, 20 DAA) | damage to plant, SINAR (rate 250, 20 DAA) | damage to plant, BEAVA (rate 500, 20 DAA) | damage to plant, BROTE (rate 500, 20 DAA) | damage to plant, BRSNN (rate 500, 20 DAA) | damage to plant, POLCO (rate 500, 20 DAA)
20: damage to plant, LOLPE (rate 250, 20 DAA) | damage to plant, POAAN (rate 250, 20 DAA) | damage to plant, AVEFA (rate 500, 20 DAA) | damage to plant, CHEAL (rate 500, 20 DAA) | damage to plant, GALAP (rate 500, 20 DAA) | damage to plant, HORVW (rate 500, 20 DAA) | damage to plant, VERPE (rate 500, 20 DAA)
70: damage to plant, POAAN (rate 500, 20 DAA)
30: damage to plant, LOLPE (rate 500, 20 DAA)
40: damage to plant, ALOMY (rate 500, 20 DAA)
